Results from patent publication US20100173958A1, “COMPOUNDS FOR THE INHIBITION OF DGAT1 ACTIVITY” (priority 2006, published 2010).
pIC50: −log10 of the molar value.

Target: T1, human DGAT1 (Homo sapiens, UniProt O75907)
T1 construct: made in house; host or cells: Sf9 insect cells (recombinant baculovirus); membrane fraction used
T1 sequence (O75907 1-488): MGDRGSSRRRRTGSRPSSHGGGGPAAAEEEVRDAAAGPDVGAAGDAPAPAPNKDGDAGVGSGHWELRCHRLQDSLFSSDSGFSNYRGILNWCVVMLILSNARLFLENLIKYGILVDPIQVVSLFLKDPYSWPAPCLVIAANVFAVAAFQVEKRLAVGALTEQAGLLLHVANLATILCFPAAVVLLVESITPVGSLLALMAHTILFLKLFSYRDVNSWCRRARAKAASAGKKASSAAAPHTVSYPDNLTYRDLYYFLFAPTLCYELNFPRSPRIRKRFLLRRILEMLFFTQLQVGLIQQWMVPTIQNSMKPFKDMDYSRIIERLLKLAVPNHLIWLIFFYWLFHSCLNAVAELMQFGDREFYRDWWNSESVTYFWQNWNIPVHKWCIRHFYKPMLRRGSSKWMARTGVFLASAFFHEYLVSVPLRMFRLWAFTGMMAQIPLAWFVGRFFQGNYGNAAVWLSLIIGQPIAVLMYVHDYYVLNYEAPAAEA
Test: Human Enzyme Assay (DGAT1 inhibition)
Format: biochemical
Conditions: human DGAT1 expressed in insect cell (sf9) membranes; 14C oleoyl coenzyme A, 30 minutes at room temperature
Experimental: The in vitro assay to identify DGAT1 inhibitors uses human DGAT1 expressed in insect cell membranes as the enzyme source (Proc. Natl. Acad. Sci. 1998, 95, 13018-13023). Briefly, sf9 cells were infected with recombinant baculovirus containing human DGAT1 coding sequences and harvested after 48 h. Cells were lysed by sonication and membranes isolated by centrifuging at 28000 rpm for 1 h at 4° C. on a 41% sucrose gradient. The membrane fraction at the interphase was collected, washed, and stored in liquid nitrogen.
DGAT1 activity was assayed by a modification of the method described by Coleman (Methods in Enzymology 1992, 209, 98-102). Compound at 1-10 μM was incubated with 0.4 μg membrane protein, 5 mM MgCl2, and 100 μM 1,2 dioleoyl-sn-glycerol in a total assay volume of 200 μl in plastic tubes. The reaction was started by adding ^14C oleoyl coenzyme A (30 μM final concentration) and incubated at room temperature for 30 minutes. The reaction was stopped by adding 1.5 mL 2-propanol:heptane:water (80:20:2). Radioactive triolein product was separated into the organic phase by adding 1 mL heptane and 0.5 mL 0.1 M carbonate buffer pH 9.5. DGAT1 activity was quantified by counting aliquots of the upper heptane layer by liquid scintillography.

SMILES: O=C(Nc1ccc(S(=O)(=O)C2CCC(C(=O)O)CC2)cc1)c1nnc(Nc2cc(F)c(F)c(F)c2)o1 (mixture of isomers) [Example 1, 4-[4-[[5-[(3,4,5-Trifluorophenyl)amino]1,3,4-oxadiazole-2-carbonyl]amino]phenyl]sulfonylcyclohexane-1-carboxylic acid]
- pIC50: 6.54
